Source: publication PMC6149712, “Anti-Allergic Activity of Monoacylated Ascorbic Acid 2-Glucosides” (Molecules : A Journal of Synthetic Chemistry and Natural …, 2017)
Where a name gives a salt, the structure may show the parent alone.

Assays:
Format in all cases: biochemical
[1] = target: T1, hyaluronidase type IV-S from a bovine testis (Bos taurus, UniProt Q2YDK3); assay: Morgan-Elson colorimetric hyaluronidase assay
T1 construct: gene SPAM1
T1 sequence (Q2YDK3 36-553): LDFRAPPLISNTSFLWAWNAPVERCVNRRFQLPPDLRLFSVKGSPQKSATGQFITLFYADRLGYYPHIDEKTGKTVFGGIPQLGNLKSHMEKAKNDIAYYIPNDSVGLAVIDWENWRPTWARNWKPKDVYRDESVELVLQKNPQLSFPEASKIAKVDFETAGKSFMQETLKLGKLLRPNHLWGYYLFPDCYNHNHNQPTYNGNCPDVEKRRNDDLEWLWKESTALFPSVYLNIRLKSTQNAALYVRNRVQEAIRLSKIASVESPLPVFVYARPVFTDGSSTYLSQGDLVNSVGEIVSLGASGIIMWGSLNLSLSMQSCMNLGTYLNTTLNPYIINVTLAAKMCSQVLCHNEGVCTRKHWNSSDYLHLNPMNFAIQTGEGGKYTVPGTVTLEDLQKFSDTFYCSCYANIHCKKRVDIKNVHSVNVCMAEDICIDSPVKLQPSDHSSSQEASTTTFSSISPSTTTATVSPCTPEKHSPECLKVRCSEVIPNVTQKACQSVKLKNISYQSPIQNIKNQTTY

[2] = target: T1, hyaluronidase type IV-S from a bovine testis; assay: Morgan-Elson colorimetric hyaluronidase assay; remark: listed apart in the source
[3] = target: T1, hyaluronidase type IV-S from a bovine testis; assay: Morgan-Elson colorimetric hyaluronidase assay, positive control

Compound `CCCCCCCCCCCCCCCC(=O)OC[C@H](O)[C@H]1OC(=O)C(O)=C1O` [6-Palm-AA, 6-O-palmitoyl-L-AA] has an IC50 [1] of 194 µM.

With `CCCCCCC(CCCCCC)C(=O)OC[C@H](O)[C@H]1OC(=O)C(O[C@H]2O[C@H](CO)[C@@H](O)[C@H](O)[C@H]2O)=C1O` [6-bMyri-AA-2G] the “Morgan-Elson colorimetric hyaluronidase assay” value [2] was 6-bMyri-AA-2G and 6-bPalm-AA-2G significantly inhibited the activity more than 6-bDode-AA-2G.

In the case of `CCCCCCCC(CCCCCCC)C(=O)OC[C@H](O)[C@H]1OC(=O)C(O[C@H]2O[C@H](CO)[C@@H](O)[C@H](O)[C@H]2O)=C1O` [6-bPalm-AA-2G], the “Morgan-Elson colorimetric hyaluronidase assay” value [2] is reported as 6-bMyri-AA-2G and 6-bPalm-AA-2G significantly inhibited the activity more than 6-bDode-AA-2G.

For `CCCCCCCCCCCCCC(=O)OC[C@H](O)[C@H]1OC(=O)C(O[C@H]2O[C@H](CO)[C@@H](O)[C@H](O)[C@H]2O)=C1O` [6-sMyri-AA-2G], the “Morgan-Elson colorimetric hyaluronidase assay” value [2] was 6-sMyri-AA-2G and 6-sPalm-AA-2G significantly inhibited the activity more than 6-sDode-AA-2G.

Compound `CCCCCCCCCCCCCCCC(=O)OC[C@H](O)[C@H]1OC(=O)C(O[C@H]2O[C@H](CO)[C@@H](O)[C@H](O)[C@H]2O)=C1O` [6-sPalm-AA-2G, 2-O-α-D-Glucopyranosyl-6-O-hexadecanoyl-L-ascorbic acid] has an IC50 [1] of 22 µM.

Compound `CCCCCCCCCCCCCCCC(=O)OC[C@H](O)[C@H]1OC(=O)C(O[C@@H]2O[C@H](CO)[C@@H](O)[C@H](O)[C@H]2O)=C1O` [6-sPalm-AA-2βG, 2-O-β-D-glucopyranosyl-6-O-hexadecanoyl-L-ascorbic acid] has an IC50 [1] of 25 µM.

`O=C(O)c1cc(=O)c2c(OCC(O)COc3cccc4oc(C(=O)O)cc(=O)c34)cccc2o1` [DSCG, Cromolyn sodium salt] was tested, and the “Morgan-Elson colorimetric hyaluronidase assay, positive control” value [3] was “Cromolyn sodium salt (DSCG), which is used clinically as an anti-allergy drug, was used as a positive control”.
